In the series the test system is human intestinal microsomes. Nature of the series: Stability of simvastatin in human intestinal microsomes (first intestinal passage effect). The settings on record: 1 mg/ml microsomes, 37° C., 12 μmol. Here is the method: The test is carried out in vitro using human intestinal microsomes containing:
0.09 nmol/mg of cytochromes P450,
0.77 nmol/min/mg of cytochromes P450 3 A 4.
1 mg/ml of microsomes is then placed in contact:
with a regenerating system having the following composition:
followed by equilibration at 37° C. for 3 minutes.
100 μl aliquots are mixed with a solution of 400 μl of a 50/50 mixture of ice and acetonitrile at 0, 15, 30, 60, 120 and 180 minutes. Testosterone is tested in parallel as control component.
The conditions for carrying out the HPLC are as follows:
The mass spectrometer used is known under the reference PE SCIEX 150.

Structures are written as SMILES.

Regarding `C[C@]12CC[C@H]3[C@@H](CCC4=CC(=O)CC[C@@]43C)[C@@H]1CC[C@@H]2O` [TESTOSTERONE, Testosterone], the Percentage remaining is, setting by setting: (simvastatin (or testosterone control) remaining, time 0 min) 100%; (time 15 min) “completely disappeared”; (time 180 min) 0%.

Source of the values: US20040146538A1, “Pharmaceutical composition for oral use comprising an active principle liable to undergo a large first intestinal passage effect” (Gattefosse Holding, priority 2001, published 2004).
